The test system of the assay is C57BL/6 mice. The assay can be described thus: Food intake in fasted mice after injection of peptide. The assay is classed as in vivo, mouse. The following applies: for Multiples of food inhibition Factor: Example 9, food intake during the first hour after injection, activity relative to oxm (1400 nmol/kg); for potency relative to oxyntomodulin: as mentioned in the examples section, times that of oxyntomodulin. As for the experimental part:
Animals. All animal procedures were approved by the British Home Office Animals (Scientific Procedures) Act 1986 (Project License number 70/5516). Male C57BL/6 mice and male Wistar rats were maintained in individual cages under controlled temperature (21-23° C.) with ad libitum access to standard chow (RM1 diet, SDS Ltd, Witham, Essex, UK) and to water. The light cycle was 14 hours light and 10 hours dark with ‘dawn’ at 07:00, lights full on at 07:30, ‘dusk’ at 21:00 with lights off at 21:30. These times were fixed in the animal facility.
All animals were handled almost daily for on average nine days prior to the first study. During the acclimatization period, each animal received two saline injections at least two days apart in order to further acclimatize to the procedure on the study days.
Intra-peritoneal (IP) injections. IP injections were administered to mice via a 0.5 ml syringe with a 29-gauge needle (maximum injection volume 0.1 ml). Maximum volume administered IP was 0.1 ml.
Study protocol: C57BL/6 mice (20-35 g) were injected with the peptide under investigation following a 20-hour fast. Wistar rats were injected following a 24-hour fast. A pre-weighed quantity of chow was presented immediately after injection. The remaining food was measured at regular time intervals (e.g. 1, 2, 3, 4, 6, 8, 24 and 48 hours following injection) and food intake calculated.

Where [1] appears, read: Example 1, fasted mice, 2700 nmol/kg by injection, intervals up to 32 h, vs saline and oxm.
The mark [2] stands for this setting: Example 57, mice, 6 or 20 nmol/kg, vs saline.
The mark [3] stands for this setting: Example 6, mice, 2700 nmol/kg, 0-8 h.
The mark [4] stands for this setting: Example 7, mice, 1000 nmol/kg, 0-24 h.
Setting [5] is: Example 11, mice, 100 nmol/kg, vs oxm(xx15-24).

“Also recorded” adds a separate entry of the source. Non-standard residues stand in square brackets, D forms with d. No end group written: not given here. *: point of attachment. Lauroyl = CCCCCCCCCCCC(=O)*

Take “Ala2-oxm: oxm with Ser at residue 2 substituted by Ala (HAQGTFTSDYSKYLDSRRAQDFVQWLMNTKRNRNNIA; Oxyntomodulin; UniProt P01275 53-89, looked up, variant S2A)”: the food intake result (Example 5, fasted mice, 2700 nmol/kg, 0-4 h, vs saline and oxm) was “does NOT significantly reduce food intake compared to saline”.
Regarding “His Ser Gln Gly Thr Phe Thr Ser Asp Tyr Ser Lys Tyr Leu Asp Ser Arg Arg Ala Gln Asp Phe Val Gln Trp Leu Lys Asn Gly Gly Pro Asn Ser Asn Asn Ile Ala (HSQGTFTSDYSKYLDSRRAQDFVQWLKNGGPNSNNIA; Asn32-oxm(ex27-33))”, the food intake result (Example 31, mice, 300 nmol/kg, vs oxm(ex27-33)) is on record as “reduces the effect of oxm(ex27-33) on food intake”.
For HSQGTFTSDYSKYLEEEVVRLFVQWLMNTKRNRNNIA, the food intake result (Example 16, mice, 30 nmol/kg) is “reduction in food intake from 0 to 2 hours”.
Consider “HSQGTFTSDYSKYLEEEAVRLFVQWLMNTKRNRNNIA [oxm(xx15-21)]”, for which the “potency relative to oxyntomodulin” value is listed as 200 times. Also, the food intake result under setting [1] was “greater and more prolonged appetite suppressant effect”. Moreover, under “mice”, the “Multiples of food inhibition Factor” value is on record as 200.
As to “HSQGTFTSDYSKYLEEEAVRLFIEWLMNTKRNRNNIA [oxm(xx15-24)]”, the “potency relative to oxyntomodulin” value came to 400 times. Further, the food intake result under setting [1] was “greater and more prolonged appetite suppressant effect; also recorded: more potent effect on feeding than oxm”. Also, the cumulative food intake entry (Example 2, mice, 300 nmol/kg, first 8 hours post-injection (FIG. 4c)) is listed as “reduces food intake only slightly less than exendin over the first 8 hours post-injection”. Where the note is “mice”, the “Multiples of food inhibition Factor” value was determined as 400. Also, the food intake result (Example 27, mice, 100 nmol/kg) is recorded as “most effective”.
“Des-His-oxm: oxm analogue with substitution of the first amino acid (His 1) (SQGTFTSDYSKYLDSRRAQDFVQWLMNTKRNRNNIA; Oxyntomodulin; UniProt P01275 53-89, looked up, variant H1*)”: the food intake result (Example 12, fasted mice, 2700 nmol/kg, 0-4 h) is recorded as “reduced food intake”. For the same substance, the “duration of action on food intake” value (Example 12, fasted mice, 2700 nmol/kg, vs native oxm) is listed as “more sustained action than native oxm”.
For the substance “His Ser Gln Gly Thr Phe Thr Ser Asp Tyr Ser Lys Tyr Leu Asp Ser Arg Arg Ala Gln Asp Phe Val Gln Trp Leu Arg Asn Gly Gly Pro Ser Ser Asn Asn Ile Ala (HSQGTFTSDYSKYLDSRRAQDFVQWLRNGGPSSNNIA; Arg27-oxm(ex27-33))”, the food intake entry runs as follows: (Example 17, mice, 300 nmol/kg) “reduction in food intake from 0 to 1 hours”; (Example 30, mice, 1400 or 300 nmol/kg, vs oxm(ex27-33)) “reduce the effect of oxm(ex27-33) on food intake”.
On to “D-His Ser Asp Gly Thr Phe Thr Ser Asp Tyr Ser Lys Tyr Leu Glu Glu Glu Val Val Arg Leu Phe Ile Gln Trp Leu Lys Asn Gly Gly Pro Ser Lys Asn Asn Ile Ala Ala Ala Glu Glu Lys-Lauroyl ([dH]SDGTFTSDYSKYLEEEVVRLFIQWLKNGGPSKNNIAAAEEK(Lauroyl))”, for which the cumulative food intake entry under setting [2] is recorded as “markedly decreased cumulative food intake in comparison to the saline control”.
As to “D-His Ser Gln Gly Thr Phe Thr Ser Asp Tyr Ser Lys Tyr Leu Asp Ser Arg Arg Ala Gln Asp Phe Val Gln Trp Leu Lys Asn Gly Gly Pro Ser Ser Gly Ala Pro Pro Pro Ser ([dH]SQGTFTSDYSKYLDSRRAQDFVQWLKNGGPSSGAPPPS) [D-His-oxm26ex]”, the cumulative food intake entry (Example 13, mice, 1000 nmol/kg (FIG. 21d)) is reported as “reduction in food intake in comparison to oxm26ex”.
Take “His Ser Gln Gly Thr Phe Thr Ser Asp Tyr Ser Lys Tyr Leu Asp Ser Arg Arg Ala Gln Asp Phe Val Gln Trp Leu Lys Asn Gly Gly Pro Ser Ser Asn Asn Ile Ala (HSQGTFTSDYSKYLDSRRAQDFVQWLKNGGPSSNNIA; Oxm Analogue) [oxm(xx27-33)]”: the food intake result (Example 3, mice, 2700 nmol/kg, vs saline and oxm) is “increased and prolonged inhibition of food intake compared to both saline and oxm”. In addition, under “mice”, the “Multiples of food inhibition Factor” value turned out to be 7.
Turning to “D-His Ala Gln Gly Thr Phe Thr Ser Asp Tyr Ser Lys Tyr Leu Glu Glu Glu Ala Val Arg Leu Phe Ile Glu Trp Leu Lys Asn Gly Gly Pro Ser Ser Asn Asn Ile Ala ([dH]AQGTFTSDYSKYLEEEAVRLFIEWLKNGGPSSNNIA) [D-His1-Ala2-oxm(xx15-24)(xx27-33)]”, the “potency relative to oxyntomodulin” value is listed as 1-4000 times. In addition, the “duration of effect on food intake” value (Example 8, mice, 100 mmol/kg (so in the source)) is “especially long-acting”. For the setting “mice”, the “Multiples of food inhibition Factor” value was 1000-4000.
Regarding “HSQGTFTSDYSKYLDSRRAQDFVQWLKNGGPSSGAPPPS [oxm26ex]”, the food intake result was “potent and long-lasting effect on food intake” under setting [3]; “significantly inhibit feeding both compared to saline control and compared to the oxm-treated group” under setting [4]. In addition, where the note is “Example 7, mice, 1000 nmol/kg, vs exendin”, the “duration of effect on food intake” value is “not as long-lasting as those of exendin”.
Consider “D-Ser Ala Asp Gly Thr Phe Thr Ser Asp Tyr Ser Lys Tyr Leu Glu Glu Glu Ala Val Arg Leu Phe Ile Gln Trp Leu Lys Asn Gly Gly Pro Ser Lys Asn Asn Ile Ala Ala Ala Glu Glu Lys-Lauroyl”, for which, under setting [2], the cumulative food intake entry was “markedly decreased cumulative food intake in comparison to the saline control”.
Turning to “HSQGTFTSDYSKYLEEEAIRLFIEWLMNTKRNRNNIA [Ile19-oxm(xx15-24)]”, the “potency on food intake” value (Example 11, mice, 100 nmol/kg, 0-24 h, vs oxm(xx15-24)) is on record as “equipotent with or slightly more potent than oxm(xx15-24)”. The “onset and duration of activity on food intake” value (shortened to “onset and duration of activity”) under setting [5] is given as “slightly delayed action as compared with oxm (xx15-24)”; the “onset and duration of activity” value (Example 11, mice, 100 nmol/kg, vs oxm(xx15-24), listed as SEQ ID NO: 34) is recorded as “delayed onset”.
As for “HSQGTFTSDYSKYLEEEVVRLFIEWLMNTKRNRNNIA [18Val-oxm(xx15-24)]”, the “onset and duration of activity” value is, setting by setting: under setting [5], “delayed onset of activity as compared with oxm(xx15-24) whilst the activity is more prolonged”; (Example 11, mice, 100 nmol/kg, vs oxm(xx15-24), listed as SEQ ID NO: 31) “delayed onset”.
Consider “CH3—CO—NH—CRH—CO-Ser Gln Gly Thr Phe Thr Ser Asp Tyr Ser Lys Tyr Leu Asp Ser Arg Arg Ala Gln Asp Phe Val Gln Trp Leu Met Asn Thr Lys Arg Asn Arg Asn Asn Ile Ala [Acetyloxyntomodulin]”, for which the “onset of anorectic effect” value (Example 14, mice, 1400 mmol/kg (so in the source)) is on record as “later acting than that of oxyntomodulin”.
“HSQGTFTSDYSKYLEEEAAQDFVQWLMNTKRNRNNIA [oxm(xx15-18)]”: the food intake entry under setting [1] was “increased and prolonged inhibition of food intake compared to both saline and oxm”.
In the case of “D-His Ala Gln Gly Thr Phe Thr Ser Asp Tyr Ser Lys Tyr Leu Asp Ser Arg Arg Ala Gln Asp Phe Val Gln Trp Leu Met Asn Thr Lys Arg Asn Arg Asn Asn Ile Ala (XAQGTFTSDYSKYLDSRRAQDFVQWLMNTKRNRNNIA; D-His at position 1; Oxm Analogue; D-His) [D-His-Ala2-oxm]”, under “mice”, the “Multiples of food inhibition Factor” value came out at 2.5. For the same substance, the minimum effective dose entry (Example 43, mice, food intake) is reported as “approximately 250 nmol/kg”. For the same substance, the “effectiveness on food intake” value (Example 43, mice, various doses, vs oxm) is “more effective than oxm”.
Turning to “His Ser Gln Gly Thr Phe Thr Ser Asp Tyr Ser Lys Tyr Leu Glu Glu Glu Ala Val Arg Leu Phe Ile Glu Trp Leu Lys Asn Gly Gly Pro Ser Ser Gly Ala Pro Pro Pro Ser [oxm(xx15-39)]”, the food intake entry by setting is: under setting [3], “potent and long-lasting effect on food intake”; under setting [4], “significantly inhibit feeding both compared to saline control and compared to the oxm-treated group”.

The values are drawn from patent publication US20090298757A1, “OXYNTOMODULIN ANALOGUES AND THEIR EFFECTS ON FEEDING BEHAVIOUR” (Imperial Innovations Limited, priority 2005, published 2009).
